The target in experiment [1] is T1, matriptase-1 (Homo sapiens, UniProt Q9Y5Y6).
T1 sequence (Q9Y5Y6 1-855): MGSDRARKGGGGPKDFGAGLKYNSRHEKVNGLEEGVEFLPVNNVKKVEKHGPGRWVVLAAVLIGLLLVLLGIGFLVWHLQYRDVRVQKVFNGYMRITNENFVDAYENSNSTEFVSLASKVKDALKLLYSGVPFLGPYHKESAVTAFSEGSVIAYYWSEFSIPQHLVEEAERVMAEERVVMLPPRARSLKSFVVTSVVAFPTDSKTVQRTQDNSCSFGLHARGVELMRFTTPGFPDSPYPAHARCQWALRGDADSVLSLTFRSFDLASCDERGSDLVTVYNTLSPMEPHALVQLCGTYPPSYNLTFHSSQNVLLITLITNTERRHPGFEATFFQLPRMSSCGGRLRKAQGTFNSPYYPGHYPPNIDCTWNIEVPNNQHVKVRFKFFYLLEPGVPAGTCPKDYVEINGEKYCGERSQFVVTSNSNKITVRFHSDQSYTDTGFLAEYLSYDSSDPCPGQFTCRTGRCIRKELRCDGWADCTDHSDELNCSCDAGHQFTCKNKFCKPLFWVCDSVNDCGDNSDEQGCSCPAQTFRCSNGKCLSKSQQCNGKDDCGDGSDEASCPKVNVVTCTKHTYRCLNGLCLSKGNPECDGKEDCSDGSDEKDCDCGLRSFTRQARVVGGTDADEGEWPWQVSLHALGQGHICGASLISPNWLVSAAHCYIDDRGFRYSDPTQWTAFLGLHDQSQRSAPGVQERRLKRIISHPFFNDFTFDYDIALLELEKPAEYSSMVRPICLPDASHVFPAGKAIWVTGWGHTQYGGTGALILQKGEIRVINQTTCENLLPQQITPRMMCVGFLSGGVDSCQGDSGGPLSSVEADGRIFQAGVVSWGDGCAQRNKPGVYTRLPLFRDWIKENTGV
The conditions noted are these: literature; cited from earlier work.

Experiment [2] addresses T2, Human matriptase-1 (Homo sapiens, UniProt Q9Y5Y6).
T2 construct: made in house
T2 sequence (Q9Y5Y6 615-855 limits assumed): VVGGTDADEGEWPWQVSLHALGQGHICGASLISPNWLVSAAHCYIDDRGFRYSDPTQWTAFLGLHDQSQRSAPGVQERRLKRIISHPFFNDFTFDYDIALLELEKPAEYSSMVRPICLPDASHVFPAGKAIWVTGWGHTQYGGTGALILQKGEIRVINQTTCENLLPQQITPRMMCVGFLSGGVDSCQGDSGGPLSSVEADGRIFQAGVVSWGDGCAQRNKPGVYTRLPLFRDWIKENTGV
The experiment is described as follows: Protease inhibition assay, matriptase-1. The experiment is classed as biochemical. As to conditions: substrate-independent inhibition constant. The protocol:
(§1) D: Biol. Crystallogr., 69(2013), 114-120; Reinwarth, ChemBioChem, 14(2013), 137-146; Boy, Mol. Imaging Biol. 12(2010), 377-385] Measurements were carried out in triplicates using a Tecan Genios ELISA reader.

Experiment [3] has as its target T3, Bovine pancreatic trypsin (Bos taurus, UniProt P00760).
T3 construct: purchased Sigma-Aldrich; host or cells: bovine pancreas
T3 sequence (P00760 24-246): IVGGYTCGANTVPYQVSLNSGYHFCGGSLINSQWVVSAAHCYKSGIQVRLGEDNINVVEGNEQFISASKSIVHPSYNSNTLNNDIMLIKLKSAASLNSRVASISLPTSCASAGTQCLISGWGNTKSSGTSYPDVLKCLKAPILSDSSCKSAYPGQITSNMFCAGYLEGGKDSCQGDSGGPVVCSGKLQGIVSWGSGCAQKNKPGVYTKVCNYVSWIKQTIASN
The experiment is described as follows: Protease inhibition assay, trypsin. The class given is biochemical. As to conditions: substrate-independent inhibition constant. As for the experimental part: as §1

Experiment [4] deals with pro-uPA activation by matriptase-1 on human prostate carcinoma cancer cells (PC-3). The experiment is described as follows: Cell inhibition assay: inhibition of pro-uPA activation on PC-3 cells. The conditions noted are these: overnight incubation, read-out: IC50 (uPA substrate turnover, indirect determination). The class given is cell-based. The protocol:
Urokinase-type plasminogen activator (uPA) causes the degradation of the extracellular matrix and plays a critical role in tumor invasion and metastasis.
Human prostate cancer cells (PC-3, Merck KGaA) were cultured in DMEM medium with 10% FCS at 37° C. and 5% CO2, washed with cation-free PBS and harvested by scraping. In the following 1×10^5 cells were incubated in presence of 250 μM Bz-β-Ala-Gly-Arg-pNA.AcOH (American Diagnostica) and the inhibitor of interest in defined dilutions overnight. Product formation was monitored at 405 nm before and after incubation in a microplate reader. IC50 was calculated by non-linear regression using SigmaPlot 11.

Experiment [5] relates to Human matriptase-1. The experiment is described as follows: Protease inhibition assay, matriptase-1. The experiment is classed as biochemical. The conditions noted are these: matriptase-1 versus trypsin. The protocol: as §1

As usually defined, the Ki is the dissociation constant of the complex between target and ligand, obtained from inhibition or displacement. High values mean a looser hold on the target, low ones a stronger hold on the target. Usually IC50 stands for the concentration that inhibits the measured activity by half.

Where a SMILES comes first, the peptide text is derived from it. Bridges are numbered along the chain shown (N, C = ends).

H-R-Q-A-R-Bt: in experiment [1], the “Ki (matriptase-1), previously reported” value is “picomolar” and the “Selectivity, previously reported” value was “low selectivity”.
On to `CC[C@H](C)[C@H](N)C(=O)NCC(=O)N[C@H](C(=O)N[C@H]1CSSC[C@@H]2NC(=O)[C@H](C)NC(=O)CNC(=O)[C@@H]3CCCN3C(=O)[C@@H]3CSSC[C@@H](C(=O)NCC(N)=O)NC(=O)[C@H](Cc4ccc(O)cc4)NC(=O)CNC(=O)[C@H](CC(N)=O)NC(=O)CNC(=O)[C@H](CCCNC(=N)N)NC(=O)[C@H](CSSC[C@H](NC(=O)[C@H](C)NC(=O)[C@H](CCCNC(=N)N)NC(=O)[C@H](CC(C)C)NC(=O)[C@H](CC(C)C)NC(=O)[C@H](CCCCN)NC(=O)[C@@H]4CCCN4C1=O)C(=O)N[C@@H](CCCNC(=N)N)C(=O)N[C@@H](CCCNC(=N)N)C(=O)N[C@@H](CC(=O)O)C(=O)N[C@@H](CO)C(=O)N[C@@H](CC(=O)O)C(=O)N3)NC(=O)[C@H]([C@@H](C)CC)NC2=O)C(C)C` [Inhibitor 4] (H-IGVCPKLLRACRRDSDCPGACICRGNGYCG-NH2; disulfide 4-21, 11-23, 17-29), for which the Ki came out at 4.4 ± 0.6 nM in experiment [2] and 31.7 ± 4.3 nM in experiment [3].
With `CC[C@H](C)[C@@H]1NC(=O)[C@@H]2CSSC[C@H](NC(=O)[C@@H](NC(=O)CNC(=O)[C@@H](N)CCCCN)C(C)C)C(=O)N3CCC[C@H]3C(=O)N[C@@H](CCCCN)C(=O)N[C@@H](C(C)C)C(=O)N[C@@H](CC(C)C)C(=O)N[C@@H](CCCNC(=N)N)C(=O)N[C@@H](CCCCN)C(=O)N[C@H]3CSSC[C@H](NC1=O)C(=O)N[C@@H](CCCNC(=N)N)C(=O)N[C@@H](C)C(=O)N[C@@H](CC(N)=O)C(=O)NCC(=O)N[C@@H](Cc1ccc(O)cc1)C(=O)N[C@H](C(=O)NCC(N)=O)CSSC[C@H](NC(=O)[C@H](CC(=O)O)NC(=O)[C@H](CO)NC(=O)[C@H](CC(=O)O)NC(=O)[C@H](CCCCN)NC(=O)[C@H](CCCNC(=N)N)NC3=O)C(=O)N1CCC[C@H]1C(=O)NCC(=O)N[C@@H](C)C(=O)N2` [Inhibitor 6] (H-KGVCPKVLRKCRKDSDCPGACICRANGYCG-NH2; disulfide 4-21, 11-23, 17-29), the inhibitory constant (Ki) in experiment [2] was determined as 7.8 ± 1 nM; in experiment [3], 22.3 ± 3 nM.
On the same counts, the results for `CC[C@H](C)[C@@H]1NC(=O)[C@@H]2CSSC[C@H](NC(=O)[C@H](CCCNC(=N)N)NC(=O)[C@H](CCCNC(=N)N)NC(=O)[C@@H](N)CC(N)=O)C(=O)N3CCC[C@H]3C(=O)N[C@@H](CCCCN)C(=O)N[C@@H](C(C)C)C(=O)N[C@@H](CC(C)C)C(=O)N[C@@H](CCCCN)C(=O)N[C@@H](C)C(=O)N[C@H]3CSSC[C@H](NC1=O)C(=O)N[C@@H](CCCNC(=N)N)C(=O)NCC(=O)N[C@@H](CC(N)=O)C(=O)NCC(=O)N[C@@H](Cc1ccc(O)cc1)C(=O)N[C@H](C(=O)NCC(N)=O)CSSC[C@H](NC(=O)[C@H](CC(=O)O)NC(=O)[C@H](CO)NC(=O)[C@H](CC(=O)O)NC(=O)[C@H](CCCNC(=N)N)NC(=O)[C@H](CCCNC(=N)N)NC3=O)C(=O)N1CCC[C@H]1C(=O)NCC(=O)N[C@@H](C)C(=O)N2` [Inhibitor 5] are 3.3 ± 0.4 nM and 19.2 ± 2.8 nM.
For the compound `CC[C@H](C)[C@@H]1NC(=O)[C@@H]2CSSC[C@H](NC(=O)[C@@H](NC(=O)CNC(=O)[C@@H](N)Cc3c[nH]c4ccccc34)C(C)C)C(=O)N3CCC[C@H]3C(=O)N[C@@H](CCCCN)C(=O)N[C@@H](C(C)C)C(=O)N[C@@H](CC(C)C)C(=O)N[C@@H](CCCNC(=N)N)C(=O)N[C@@H](CC(N)=O)C(=O)N[C@H]3CSSC[C@H](NC1=O)C(=O)N[C@@H](CC(C)C)C(=O)NCC(=O)N[C@@H](CC(N)=O)C(=O)NCC(=O)N[C@@H](Cc1ccc(O)cc1)C(=O)N[C@H](C(=O)NCC(N)=O)CSSC[C@H](NC(=O)[C@H](CC(=O)O)NC(=O)[C@H](CO)NC(=O)[C@H](CC(=O)O)NC(=O)[C@H](CCCNC(=N)N)NC(=O)[C@H](CCCNC(=N)N)NC3=O)C(=O)N1CCC[C@H]1C(=O)NCC(=O)N[C@@H](C)C(=O)N2` [Inhibitor 7] (H-WGVCPKVLRNCRRDSDCPGACICLGNGYCG-NH2; disulfide 4-21, 11-23, 17-29; N-terminus assumed), the IC50 in experiment [4] was 213 nM. Further, the Ki is 0.83 ± 0.14 nM in experiment [2] and 35.8 ± 4.7 nM in experiment [3]. For the same compound, in experiment [5], the “Inhibitory activity for matriptase-1 relative to trypsin” value is given as “approximately fortyfold”.

The values are drawn from patent US20160194380A1, “POTENT INHIBITORS OF HUMAN MATRIPTASE DERIVED FROM MCOTI-II VARIANTS” (MERCK PATENT GMBH, priority 2013, published 2016).
